These are literature values, as cited in patent US20190060340A1, “NOVEL AMINOGLYCOSIDES AND USES THEREOF IN THE TREATMENT OF GENETIC DISORDERS” (Technion Research & Development Foundation Limited, priority 2007, published 2019).

One data set deals with stop mutations. The following applies: literature; cited from earlier work.
The conditions of data set [1]: available toxicity data on aminoglycosides; unit inferred; cited from earlier work.

Take `NC[C@@H]1O[C@@H](O[C@H]2[C@H](O)[C@@H](O[C@H]3O[C@H](CO)[C@@H](O)[C@H](N)[C@H]3O)[C@H](N)C[C@@H]2N)[C@@H](O)[C@H](O)[C@H]1O` [kanamycin A]: the “stop mutations suppression / read-through activity” value with stop mutations is reported as “does not show any read-through activity”. Besides, in data set [1], the 50% lethal dose (LD50) was 280 mg/kg.
As for `NC[C@H]1O[C@H](O[C@H]2[C@H](O)[C@@H](O[C@H]3O[C@H](CO)[C@@H](O)[C@H](N)[C@H]3O)[C@H](N)C[C@@H]2N)[C@H](N)C[C@@H]1O` [tobramycin], the “stop mutations suppression / read-through activity” value in the data set on stop mutations is “do not have stop mutations suppression activity”. The LD50 in data set [1] is 79 mg/kg.
